In ChEMBL document CHEMBL1201862, “PubChem BioAssay data set” (2004):
Activity calls are given as the source filed them.

How the values were obtained:
Streptococcus = experiment: Group A Streptococcus viability loss, dose response, counter-screen for streptokinase expression inhibitor project, luminescence, BacTiterGlo (AID 1915); format: functional, organism-based; conditions: Streptococcus;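 also: potency for reduction of bacterial viability or growth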
[1] = Counterscreen for inhibitors of Trypanosoma brucei methionyl tRNA synthetase (MetRS): Luminescence-based cell-based high throughput dose response assay to identify compounds that are cytotoxic to Jurkat human T lymphocyte cells.; format: functional
Vero = experiment: cells; format: functional; conditions: Chlorocebus sabaeus
[2] = target: T1, Methionyl-tRNA synthetase, putative (Trypanosoma brucei brucei, UniProt Q38C91); format: functional, Trypanosoma brucei brucei strain 927/4 GUTat10.1
T1 sequence (Q38C91 whole entry): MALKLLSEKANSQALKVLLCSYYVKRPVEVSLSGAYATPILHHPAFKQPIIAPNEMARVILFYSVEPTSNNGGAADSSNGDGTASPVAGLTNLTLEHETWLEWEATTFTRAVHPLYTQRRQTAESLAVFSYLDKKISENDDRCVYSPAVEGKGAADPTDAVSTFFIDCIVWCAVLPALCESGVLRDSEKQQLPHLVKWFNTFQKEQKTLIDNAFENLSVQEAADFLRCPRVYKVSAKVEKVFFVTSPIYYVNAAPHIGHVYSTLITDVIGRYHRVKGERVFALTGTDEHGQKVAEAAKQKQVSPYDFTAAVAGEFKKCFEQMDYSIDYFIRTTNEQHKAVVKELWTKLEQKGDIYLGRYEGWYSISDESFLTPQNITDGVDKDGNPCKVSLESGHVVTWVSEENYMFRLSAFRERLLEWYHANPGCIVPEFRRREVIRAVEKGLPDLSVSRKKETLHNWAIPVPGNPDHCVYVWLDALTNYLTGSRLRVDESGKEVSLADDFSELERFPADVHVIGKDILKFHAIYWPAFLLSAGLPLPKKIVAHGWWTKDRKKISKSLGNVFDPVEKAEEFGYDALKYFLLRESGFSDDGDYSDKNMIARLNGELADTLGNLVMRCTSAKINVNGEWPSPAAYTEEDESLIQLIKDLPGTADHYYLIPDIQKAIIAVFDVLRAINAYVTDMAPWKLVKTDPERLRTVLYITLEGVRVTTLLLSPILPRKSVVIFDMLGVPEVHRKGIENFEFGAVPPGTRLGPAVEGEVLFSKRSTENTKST

[3] = HepG2 cell cytotoxicity, dose response, cytotoxicity control, ATP luminescence, cherry-pick, activator set 2 (AID 1053143); format: functional, cell-based
[4] = target: T2, Replicative DNA helicase DnaB (Mycobacterium tuberculosis, UniProt P9WMR3); experiment: DnaB intein splicing inhibitors, dose response, biochemical, cell-free fluorescence (AID 449749); format: functional
T2 sequence (P9WMR3 whole entry): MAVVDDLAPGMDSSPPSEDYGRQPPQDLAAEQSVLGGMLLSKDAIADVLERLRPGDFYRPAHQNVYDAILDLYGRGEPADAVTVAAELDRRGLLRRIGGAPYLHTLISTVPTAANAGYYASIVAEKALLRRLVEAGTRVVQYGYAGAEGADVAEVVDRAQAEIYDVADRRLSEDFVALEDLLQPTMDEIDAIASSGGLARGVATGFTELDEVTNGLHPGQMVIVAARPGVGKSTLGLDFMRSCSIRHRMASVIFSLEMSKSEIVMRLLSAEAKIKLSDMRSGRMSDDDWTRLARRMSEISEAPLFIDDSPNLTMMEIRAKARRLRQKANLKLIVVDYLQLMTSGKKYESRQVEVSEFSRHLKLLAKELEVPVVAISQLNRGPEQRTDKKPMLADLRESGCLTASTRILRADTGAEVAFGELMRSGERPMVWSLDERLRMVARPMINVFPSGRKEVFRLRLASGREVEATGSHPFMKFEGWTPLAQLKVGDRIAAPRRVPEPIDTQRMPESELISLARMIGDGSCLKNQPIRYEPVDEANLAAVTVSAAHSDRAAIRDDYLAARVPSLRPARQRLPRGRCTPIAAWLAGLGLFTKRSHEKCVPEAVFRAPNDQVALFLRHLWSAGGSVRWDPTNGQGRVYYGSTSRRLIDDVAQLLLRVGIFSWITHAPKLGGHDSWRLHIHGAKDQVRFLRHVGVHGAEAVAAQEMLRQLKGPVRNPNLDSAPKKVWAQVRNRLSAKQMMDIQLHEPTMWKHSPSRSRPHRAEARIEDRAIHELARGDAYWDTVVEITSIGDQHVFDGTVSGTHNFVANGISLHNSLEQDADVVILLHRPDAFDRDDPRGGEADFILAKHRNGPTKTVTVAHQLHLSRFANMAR

[5] = tested on: Streptococcus sp. 'group A'; experiment: growth inhibition of control SK(-) GAS strain, dose response, counter-screen for streptokinase expression inhibitor project, luminescence, kanamycin, BacTiterGlo, confirmation (AID 1900); format: functional, organism-based; conditions: Streptococcus sp. 'group A'
[6] = target: T1, Methionyl-tRNA synthetase, putative; format: functional, Trypanosoma brucei brucei strain 927/4 GUTat10.1; remark: listed apart in the source
Streptokinase A = target: T3, Streptokinase A (Streptococcus pyogenes serotype M1, UniProt P10520); experiment: S. pyogenes streptokinase expression inhibitors, potency, dose response, plasminogen activation absorbance, OD405 (AID 1914); format: functional, Streptococcus pyogenes M1 GAS;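 also: secreted streptokinase activity via plasminogen activation per viability signal from cell pellet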
T3 sequence (P10520 whole entry): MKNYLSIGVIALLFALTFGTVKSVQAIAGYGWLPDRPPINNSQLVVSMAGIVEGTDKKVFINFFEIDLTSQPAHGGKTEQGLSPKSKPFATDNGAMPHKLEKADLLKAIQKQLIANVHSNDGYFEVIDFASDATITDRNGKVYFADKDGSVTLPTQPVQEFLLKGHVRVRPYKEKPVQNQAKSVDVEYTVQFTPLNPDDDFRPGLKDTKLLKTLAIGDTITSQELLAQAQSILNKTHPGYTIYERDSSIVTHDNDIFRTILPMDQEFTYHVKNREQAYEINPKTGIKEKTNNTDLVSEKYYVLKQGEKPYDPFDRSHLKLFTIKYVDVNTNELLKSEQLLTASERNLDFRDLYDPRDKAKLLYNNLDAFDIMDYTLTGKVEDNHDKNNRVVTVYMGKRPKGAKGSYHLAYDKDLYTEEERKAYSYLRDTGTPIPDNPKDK

Protein RecA = target: T4, Protein RecA (Mycobacterium tuberculosis, UniProt P9WHJ3); experiment: Fluorescence Cell-Free Homogeneous Dose Retest to Identify Inhibitors of RecA-Intein Splicing Activity. [Related pubchem assays (depositor defined):AID2097, AID2223, AID489010, AID492950]; format: functional
T4 sequence (P9WHJ3 whole entry): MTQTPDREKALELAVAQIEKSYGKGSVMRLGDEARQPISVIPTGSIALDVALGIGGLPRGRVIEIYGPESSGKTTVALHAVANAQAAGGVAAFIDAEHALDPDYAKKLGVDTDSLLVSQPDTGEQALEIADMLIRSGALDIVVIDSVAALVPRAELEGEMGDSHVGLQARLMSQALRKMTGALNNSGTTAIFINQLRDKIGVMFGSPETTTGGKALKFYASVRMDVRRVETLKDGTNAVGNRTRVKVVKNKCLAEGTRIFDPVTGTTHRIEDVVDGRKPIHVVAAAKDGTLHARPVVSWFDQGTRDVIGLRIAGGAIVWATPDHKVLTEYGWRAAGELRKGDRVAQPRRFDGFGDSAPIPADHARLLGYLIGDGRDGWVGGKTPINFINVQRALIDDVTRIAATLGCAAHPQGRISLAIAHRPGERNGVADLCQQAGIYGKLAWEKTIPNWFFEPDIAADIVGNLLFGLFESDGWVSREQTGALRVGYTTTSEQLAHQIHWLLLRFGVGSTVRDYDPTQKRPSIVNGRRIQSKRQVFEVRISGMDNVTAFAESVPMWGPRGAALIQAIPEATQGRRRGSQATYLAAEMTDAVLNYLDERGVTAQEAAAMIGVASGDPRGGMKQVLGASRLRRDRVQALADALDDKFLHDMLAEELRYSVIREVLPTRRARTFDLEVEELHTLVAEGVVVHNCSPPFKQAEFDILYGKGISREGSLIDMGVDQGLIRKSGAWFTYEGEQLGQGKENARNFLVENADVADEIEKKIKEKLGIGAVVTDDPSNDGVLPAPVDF

[7] = target: 1-phosphatidylinositol 4,5-bisphosphate phosphodiesterase gamma-1 (Homo sapiens, UniProt P19174); experiment: Counterscreen for inhibitors of phospholipase C isozymes (PLC-B3): Fluorescence-based biochemical high throughput dose response assay to identify inhibitors of phospholipase C isozymes (PLC-gamma1).
Sequence of 1-phosphatidylinositol 4,5-bisphosphate phosphodiesterase gamma-1 (P19174 whole entry): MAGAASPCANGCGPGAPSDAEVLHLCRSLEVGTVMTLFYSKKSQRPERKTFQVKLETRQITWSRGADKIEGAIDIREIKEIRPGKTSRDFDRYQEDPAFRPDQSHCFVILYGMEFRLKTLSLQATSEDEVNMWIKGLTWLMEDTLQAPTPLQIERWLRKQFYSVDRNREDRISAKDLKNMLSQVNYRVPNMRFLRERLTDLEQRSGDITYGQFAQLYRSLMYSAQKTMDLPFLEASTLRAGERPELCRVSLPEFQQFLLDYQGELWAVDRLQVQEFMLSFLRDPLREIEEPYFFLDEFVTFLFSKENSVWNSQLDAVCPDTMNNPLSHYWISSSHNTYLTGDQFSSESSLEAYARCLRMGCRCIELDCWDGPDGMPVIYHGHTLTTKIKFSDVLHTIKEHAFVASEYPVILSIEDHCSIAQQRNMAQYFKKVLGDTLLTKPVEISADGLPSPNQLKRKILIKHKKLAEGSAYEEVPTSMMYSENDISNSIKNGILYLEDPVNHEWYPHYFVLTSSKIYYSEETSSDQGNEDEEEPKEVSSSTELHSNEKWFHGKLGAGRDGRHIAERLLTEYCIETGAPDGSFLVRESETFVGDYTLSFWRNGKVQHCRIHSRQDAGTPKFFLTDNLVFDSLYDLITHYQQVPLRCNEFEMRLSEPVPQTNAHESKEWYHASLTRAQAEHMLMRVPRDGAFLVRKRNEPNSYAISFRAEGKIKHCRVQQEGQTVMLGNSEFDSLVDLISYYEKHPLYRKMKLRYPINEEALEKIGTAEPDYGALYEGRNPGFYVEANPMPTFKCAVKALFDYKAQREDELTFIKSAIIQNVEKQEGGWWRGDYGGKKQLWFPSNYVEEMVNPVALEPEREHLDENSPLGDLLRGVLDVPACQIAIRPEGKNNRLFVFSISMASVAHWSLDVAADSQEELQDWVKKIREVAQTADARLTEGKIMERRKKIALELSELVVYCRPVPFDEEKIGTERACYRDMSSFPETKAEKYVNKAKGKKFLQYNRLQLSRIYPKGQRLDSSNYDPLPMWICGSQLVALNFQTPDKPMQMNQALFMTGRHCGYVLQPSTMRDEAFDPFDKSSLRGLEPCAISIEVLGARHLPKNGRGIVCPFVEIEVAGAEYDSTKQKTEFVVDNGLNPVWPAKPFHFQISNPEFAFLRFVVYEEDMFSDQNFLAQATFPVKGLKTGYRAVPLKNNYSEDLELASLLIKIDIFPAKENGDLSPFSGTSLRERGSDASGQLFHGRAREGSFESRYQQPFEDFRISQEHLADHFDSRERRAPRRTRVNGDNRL

[8] = target: 1-phosphatidylinositol 4,5-bisphosphate phosphodiesterase beta-3 (Homo sapiens, UniProt Q01970); experiment: Fluorescence-based biochemical high throughput dose response assay to identify inhibitors of phospholipase C isozymes (PLC-B3).
Sequence of 1-phosphatidylinositol 4,5-bisphosphate phosphodiesterase beta-3 (Q01970 whole entry): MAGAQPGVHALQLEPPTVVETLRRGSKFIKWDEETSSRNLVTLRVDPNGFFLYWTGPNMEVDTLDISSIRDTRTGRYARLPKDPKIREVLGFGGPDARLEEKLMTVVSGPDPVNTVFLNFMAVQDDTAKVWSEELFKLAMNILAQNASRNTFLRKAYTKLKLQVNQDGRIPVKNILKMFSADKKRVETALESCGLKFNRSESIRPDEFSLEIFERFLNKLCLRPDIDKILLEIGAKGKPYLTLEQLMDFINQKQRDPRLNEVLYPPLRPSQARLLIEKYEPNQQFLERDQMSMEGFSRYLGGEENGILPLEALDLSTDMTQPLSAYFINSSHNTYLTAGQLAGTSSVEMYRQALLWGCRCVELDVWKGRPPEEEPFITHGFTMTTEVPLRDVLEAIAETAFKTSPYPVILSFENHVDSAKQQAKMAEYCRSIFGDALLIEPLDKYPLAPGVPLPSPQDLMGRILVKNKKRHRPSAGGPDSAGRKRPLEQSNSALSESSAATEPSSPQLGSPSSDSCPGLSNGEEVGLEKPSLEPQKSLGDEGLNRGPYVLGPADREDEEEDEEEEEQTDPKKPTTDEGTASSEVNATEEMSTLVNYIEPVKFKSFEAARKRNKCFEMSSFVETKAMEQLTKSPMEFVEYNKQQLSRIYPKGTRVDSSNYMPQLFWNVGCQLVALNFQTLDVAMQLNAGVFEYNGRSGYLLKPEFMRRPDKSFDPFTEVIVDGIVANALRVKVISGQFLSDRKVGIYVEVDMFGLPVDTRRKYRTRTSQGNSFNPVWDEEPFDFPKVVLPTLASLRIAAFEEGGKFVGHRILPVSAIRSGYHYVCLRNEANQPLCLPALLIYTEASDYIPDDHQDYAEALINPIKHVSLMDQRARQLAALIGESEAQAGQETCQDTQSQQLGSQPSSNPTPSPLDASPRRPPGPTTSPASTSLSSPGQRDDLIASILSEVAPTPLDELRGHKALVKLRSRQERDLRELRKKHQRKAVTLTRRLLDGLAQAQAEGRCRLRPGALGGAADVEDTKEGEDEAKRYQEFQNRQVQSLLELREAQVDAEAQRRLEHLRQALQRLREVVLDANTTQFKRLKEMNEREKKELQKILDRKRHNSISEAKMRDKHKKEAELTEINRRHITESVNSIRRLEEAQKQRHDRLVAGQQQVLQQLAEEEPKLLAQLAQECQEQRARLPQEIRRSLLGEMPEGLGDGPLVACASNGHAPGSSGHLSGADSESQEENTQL

[9] = Luminescence-based cell-based high throughput dose response assay to identify activators of the DAF-12 from the parasite S. stercoralis (ssDAF-12).; format: functional
[10] = target: T5, Oxysterols receptor LXR-beta (Homo sapiens, UniProt P55055); experiment: LXR agonists, Gal4 luciferase reporter, dose response, counter-screen for ssDAF-12 agonist project, cell-based, luminescence, HEK293, S. stercoralis campaign (AID 720737); format: functional; conditions: read-out: IC50 (the source's name)
T5 sequence (P55055 whole entry): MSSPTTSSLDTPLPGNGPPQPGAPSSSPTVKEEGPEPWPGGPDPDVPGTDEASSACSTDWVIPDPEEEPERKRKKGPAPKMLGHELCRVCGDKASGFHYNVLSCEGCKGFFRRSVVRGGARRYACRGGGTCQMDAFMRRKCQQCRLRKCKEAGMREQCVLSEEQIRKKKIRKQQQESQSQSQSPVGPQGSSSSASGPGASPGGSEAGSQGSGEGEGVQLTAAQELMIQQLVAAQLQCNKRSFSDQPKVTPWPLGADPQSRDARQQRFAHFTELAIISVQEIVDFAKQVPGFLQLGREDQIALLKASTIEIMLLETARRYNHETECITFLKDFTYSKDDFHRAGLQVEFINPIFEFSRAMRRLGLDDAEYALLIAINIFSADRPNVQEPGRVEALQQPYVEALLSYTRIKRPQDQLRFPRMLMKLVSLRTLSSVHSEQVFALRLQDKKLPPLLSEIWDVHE

HeLa = experiment: HeLa cell cytotoxicity, dose response, cytotoxicity control, ATP luminescence, cherry-pick samples (AID 687004); format: functional, cell-based; conditions: Homo sapiens
[11] = HEK293 Cytotoxicity Assay Measured in Cell-Based System Using Plate Reader - 7071-01_Inhibitor_Dose_CherryPick_Activity_Set2.; format: functional
HEK293 = experiment: HEK293T cell cytotoxicity, dose response, cytotoxicity control, ATP luminescence, cherry-pick samples (AID 687005); format: functional, cell-based; conditions: Homo sapiens;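 also: cells exposed to compound for 48 hours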
[12] = target: Luciferin 4-monooxygenase (Photinus pyralis, UniProt P08659); experiment: firefly luciferase enzyme inhibitors, dose response, biochemical, luminescence (AID 1891)
Sequence of Luciferin 4-monooxygenase (P08659 whole entry): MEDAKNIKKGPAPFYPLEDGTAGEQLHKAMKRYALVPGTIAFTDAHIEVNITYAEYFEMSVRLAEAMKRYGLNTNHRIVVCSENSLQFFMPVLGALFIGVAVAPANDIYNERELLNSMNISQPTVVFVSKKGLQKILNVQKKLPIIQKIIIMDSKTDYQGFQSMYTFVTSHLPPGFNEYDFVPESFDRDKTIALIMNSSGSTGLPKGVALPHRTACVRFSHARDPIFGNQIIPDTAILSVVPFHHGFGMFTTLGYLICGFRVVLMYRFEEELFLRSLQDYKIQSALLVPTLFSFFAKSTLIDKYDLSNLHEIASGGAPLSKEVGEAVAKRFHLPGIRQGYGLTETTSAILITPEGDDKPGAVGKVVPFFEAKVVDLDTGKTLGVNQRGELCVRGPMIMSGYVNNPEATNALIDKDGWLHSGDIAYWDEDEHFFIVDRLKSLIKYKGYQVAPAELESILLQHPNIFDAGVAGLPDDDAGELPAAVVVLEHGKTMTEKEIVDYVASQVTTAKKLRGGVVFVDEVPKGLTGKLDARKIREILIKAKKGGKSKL

[13] = Luminescence Cell-Based Dose Confirmation HTS to Identify Inhibitors of Platelet Dense Granule Release. [Related pubchem assays: 1663 (Primary HTS), 1678 (Summary of Project)]; format: functional
BJ [14] = experiment: cytotoxicity toward BJ-TERT-LT-ST fibroblasts, dose response, cell-based, RAS-independent, luminescence (AID 1935); format: functional; conditions: Homo sapiens;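 also: BJ fibroblasts immortalized with TERT plus LT and ST oncogenes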
[15] = HEK293 cell cytotoxicity, dose response, cytotoxicity control, plate reader, cherry-picked samples (AID 743446); format: functional, cell-based
[16] = A549 cell cytotoxicity, dose response, cytotoxicity control, plate reader, cherry-pick, antagonist series (AID 743412); format: functional, cell-based
BJ [17] = experiment: cytotoxicity toward BJ-TERT fibroblasts, dose response, cell-based, RAS-independent, luminescence (AID 1933); format: functional; conditions: Homo sapiens
[18] = LGR2 antagonists, dose response, cell-based, HEK293, CRE-luciferase reporter, cherry pick, set 2 (AID 743343); format: functional;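 also: transfected cells were stimulated with diluted bursicon conditioned medium after compound addition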
[19] = cytotoxicity toward DRD oncogenic fibroblasts, dose response, cell-based, non-viral oncogenic, luminescence (AID 1934); format: functional; conditions: Homo sapiens
[20] = HepG2 cell cytotoxicity, dose response, cytotoxicity control, plate reader, cherry-pick, antagonist series (AID 743416); format: functional, cell-based
[21] = MC4R antagonists, dose response, counter-screen for LGR2 antagonist project, cell-based, plate reader, cherry pick (AID 743444); format: functional;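 also: transfected HEK 293 cells stimulated with alpha-MSH peptide; potency of inhibitors of the alpha-MSH evoked signal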
BJ [22] = experiment: cells; format: functional, cell-based; conditions: Homo sapiens
Kallikrein-7 = Kallikrein-7 (Homo sapiens, UniProt P49862); experiment: Fluorescence Intensity-based biochemical primary high throughput dose response assay to identify activators of kallikrein-7 (K7) zymogen.
Sequence of Kallikrein-7 (P49862 whole entry): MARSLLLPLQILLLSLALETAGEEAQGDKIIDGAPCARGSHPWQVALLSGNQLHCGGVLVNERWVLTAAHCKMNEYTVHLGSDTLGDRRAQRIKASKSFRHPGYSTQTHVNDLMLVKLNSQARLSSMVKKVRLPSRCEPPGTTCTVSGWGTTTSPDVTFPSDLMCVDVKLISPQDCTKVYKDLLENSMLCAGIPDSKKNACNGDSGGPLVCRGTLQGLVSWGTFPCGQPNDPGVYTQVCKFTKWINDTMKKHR

Compound: Cc1[nH]c2ccccc2c1/C=N/Nc1nc2ccccc2[nH]1
- EC50 (Streptococcus): 9.86 µM (active)
- IC50 [1]: 36.2 µM (inactive)
- CC50 (Vero): > 25 µM (active)
- IC50 [2]: 17.1 µM (inactive)
- AC50 [3]: 26 µM (active)
- AC50 [4]: > 380 µM (inactive)
- EC50 [5]: 7.74 µM (active)
- IC50 [6]: 36.9 µM (inactive)
- EC50 (Streptokinase A): > 150 µM (not active)
- EC50 (Protein RecA): 39.3 µM (active)

Compound: O=Cc1cc(N=Nc2ccc(S(=O)(=O)O)cc2)ccc1O
- IC50 [7]: 39.3 µM (inactive)
- IC50 [8]: > 122 µM (inactive)

Compound: O=C(O)C(=O)/C(=C\c1ccccc1)c1ccc2ccccc2n1
- IC50 [9]: > 67.5 µM (inactive)
- EC50 [10]: > 67.5 µM (inactive)

Compound: CC(C)(C)c1ccc(OCC(=O)NC(c2ccccc2)c2ccccc2)cc1
- AC50 (HeLa): > 70 µM (inactive)
- AC50 [11]: 3.2 µM (active)
- AC50 (HEK293): 3.2 µM (active)

Compound: CCOc1ccc(Nc2nc(N)c3ccccc3n2)cc1
- EC50 [12]: 0.765 µM (active)
- EC50 [13]: 0.738 µM (active)
- EC50 (BJ [14]): 17.5 µM (active)
- AC50 [15]: 13.2 µM (active)
- AC50 [16]: 12.8 µM (active)
- EC50 (BJ [17]): 7.8 µM (active)
- AC50 [18]: 1.62 µM (active)
- EC50 [19]: 8.22 µM (active)
- AC50 [20]: 12.9 µM (active)
- AC50 [21]: 2.31 µM (active)
- EC50 (BJ [22]): 8.24 µM (active)

Compound: COc1ccc(C2Nc3ccccc3C(=O)N2NS(C)(=O)=O)cc1OC (centres undefined)
- EC50 (Kallikrein-7): 38.8 µM (inactive)
